Source: ChEMBL document CHEMBL1122922, “Inhibition of muscarinic receptor binding and acetylcholine-induced contraction of guinea pig ileum by analogues of 5'-(isobutylthio)adenosine” (J Med Chem, 1985)

Target: Muscarinic acetylcholine receptor
Assay: Ability to inhibit binding of [3H]QNB to Muscarinic acetylcholine receptor in cultured N4TG1 neuroblastoma cells at 1e-8 to 1e-3 M

| Compound | I 50 |
| --- | --- |
| CC(C)CSCC1CC(n2cnc3c(N)nccc32)C(O)C1O (centres undefined) | 210 µM |
| CC(C)CSC[C@H]1OC(n2cnc3c(N)ccnc32)[C@H](O)[C@@H]1O (some centres undefined) | 52 µM |
| CC(C)CSC[C@H]1OC(n2cnc3c(N)nccc32)[C@H](O)[C@@H]1O (some centres undefined) | 39 µM |
| CC(C)CSC[C@H]1OC(n2cnc3c(N)ncnc32)[C@H](O)[C@@H]1O (some centres undefined) | 1500 µM |
